Reference: US20090105149A1, “Compounds comprising lpa” (ENKAM PHARMACEUTICALS A/S, priority 2003, published 2009)

Key:
[1] = tested on: rats treated with (25-35) β-amyloid fragment; assay: Amyloid burden in brain sections, (25-35) β-amyloid fragment rat model; type: in vivo; details: Study 2; sub-occipital 5 μg, days 7, 10, 13; β-amyloid only = 100%
Experimental: The number of animals in the groups varied from 3 to 13. Results were analysed using one-way ANOVA (F(2,18)=5.2, p=0.016), and significance of results was contingent on achieving a p-value of less than 0.05 (*p<0.05 and **p<0.01), when compared with the A-β/V group (Newman-Keuls posttest).
The number of animals in the groups varied from 2 to 12. Results were analysed using one-way ANOVA (F(2,15)=9.54, p=0.002), and significance of results was contingent on achieving a p-value of less than 0.05 (***p<0.001), when compared with the A-β/V group (Newman-Keuls posttest).
The number of animals per group varied from 3 to 13. The results were analysed using one-way ANOVA (F(2,12)=18.6, P=0.002) and significance of results was contingent on achieving a p-value of less than 0.05 (***p<0.001) when compared with the A-β/V group (Bonferroni's multiple comparison test).
The number of animals per group varied from 3 to 5. The results were analysed using one-way ANOVA (F(2,9)=10.6, P=0.004) and significance of results was contingent on achieving a p-value of less than 0.05 (***p<0.001) when compared with the A-β/V group (Newman-Keuls post-test).
Behaviour of animals was evaluated using the Social Recognition test, the Open Field test or the Light-dark Discriminating γ-maze. […] In addition, the number of neurons in selected areas of brain-sections was calculated using a stereological approach.

[2] = tested on: rats treated with (25-35) β-amyloid fragment; assay: Light-dark Discriminating Y-maze with positive food reinforcement; type: in vivo, rat
Experimental: (§1) The present study employed a rat model, in which neurotoxicity and cognitive impairment were induced by the (25-35) β-amyloid peptide fragment (see Maurice T., et al. (1996) (Brain Res. 706:181-93) and Delobette S., et al. (1997) Eur J Pharmacol. 319:1-4). Short-term memory deficit induced by the (25-35) β-amyloid peptide fragment in rat is of special importance to study, as it resembles one of the clinical manifestations of Alzheimer's disease. Short-term memory deficit in rats was evaluated using three different behavioural tests: the Social Recognition (Kogan et al, (2000) Hippocampus 10:47-56), Open Field (Cerbone and Sadile, (1994) Neurosci Biobehav Rev. 18:497-518; Vianna et al, (2000) Learn Mem. 7:333-40) and Y-maze (Clayton & Williams, (2000) Neurobiol Learn Mem. 74:135-45) tests. […]
(§2) Behaviour of animals was evaluated using the Social Recognition test, the Open Field test or the Light-dark Discriminating γ-maze. On day 28-30 or day 51 after i.c.v. administration of the (25-35) β-amyloid fragment, the animals were sacrificed, and in selected studies, the brain tissue was collected, histological sections were immunostained with A-β specific antibodies and the amyloid-burden was calculated as a percentage of the A-βpositive area. In addition, the number of neurons in selected areas of brain-sections was calculated using a stereological approach.

[3] = tested on: rats treated with (25-35) β-amyloid fragment; assay: Open Field test, (25-35) β-amyloid fragment rat model; type: in vivo; details: day 14; for time spent exploring holes / time spent rearing: sub-occipital, days 7, 10, 13
Experimental: The peptide was applied sub-occipitally at days 7, 10, and 13 after the (25-35) β-amyloid fragment induced neurotoxicity. […] The number of animals per group varied from 9 to 11. ‘A-β’ and ‘V’ are the abbreviations of the (25-35) β-amyloid fragment and vehicle, respectively. The results were analysed using unpaired t-test and significance of results was contingent on achieving a p-value of less than 0.05 (*p<0.05, **p<0.01), when compared with the first measurement period (1-3 min.).
The present study employed a rat model, in which neurotoxicity and cognitive impairment were induced by the (25-35) β-amyloid peptide fragment (see Maurice T., et al. (1996) (Brain Res. 706:181-93) and Delobette S., et al. (1997) Eur J Pharmacol. 319:1-4). Short-term memory deficit induced by the (25-35) β-amyloid peptide fragment in rat is of special importance to study, as it resembles one of the clinical manifestations of Alzheimer's disease. Short-term memory deficit in rats was evaluated using three different behavioural tests: the Social Recognition (Kogan et al, (2000) Hippocampus 10:47-56), Open Field (Cerbone and Sadile, (1994) Neurosci Biobehav Rev. 18:497-518; Vianna et al, (2000) Learn Mem. 7:333-40) and Y-maze (Clayton & Williams, (2000) Neurobiol Learn Mem. 74:135-45) tests. In addition, neuropathological investigations were performed on brain tissue collected at the time of sacrifice. The FGL peptide was administered either sub-occipitally or intranasally.
as §2

[4] = tested on: rats treated with (25-35) β-amyloid fragment; assay: Neuronal density / cell death in brain sections, (25-35) β-amyloid fragment rat model; type: in vivo; details: days 7, 10, 13
Experimental: The effect of 5.0 μg FGL per administration per rat, administered sub-occipitally on days 7, 10 and 13 after (25-35) β-amyloid (A-β) fragment-induced toxicity, on neuronal cell death in the CA3 zone of the rat hippocampus. The number of animals in the groups varied from 4 to 8.
(§3) The number of animals in the groups varied from 4 to 8.
as §3, §2

[5] = tested on: rats treated with (25-35) β-amyloid fragment; assay: Social Recognition test, (25-35) β-amyloid fragment rat model; type: in vivo; details: days 7, 10, 13
Experimental: The results are from the experiment in which the suboccipital administration of 5.0 μg FGL per administration per rat was done at days 7, 10, and 13 after A-β-induced neurotoxicity. […] The number of animals in the groups varied from 4 to 22. The results were analysed using one-way ANOVA (F(2,27)=15.4, P<0.0001) and significance of results was contingent on achieving a p-value of less than 0.05 (**p<0.01), when compared to the A-β/V group (Newman-Keuls post-test). […] FGLcontrol as above.
[…] The number of animals per group varied from 4 to 5. The results were analysed using unpaired t-test and significance of results was contingent on achieving a p-value of less than 0.05 (*p<0.05), when compared to the A-β/N group. […]
as §1, with “Short-term memory deficit induced by the (25-35) β-amyloid peptide fragment in rat is of special importance to study, as it resembles one of the clinical manifestations of Alzheimer's disease.” left out

“FGLd: MAP-type dendrimer of FGL; dendrimeric tetramer of the FGL peptide (EVYVVAENQQGKSKA)” was tested, and the “amyloid burden in the CA3 area of the hippocampus” value [1] was 44%, the “amyloid burden in the cingulate cortex” value [1] was 42% and the number of errors ([2]; day 25, last day of training, sub-occipital, β-amyloid control 3.8) was 1.7. For the same substance, the number of errors ([2]; training days 21-24, vs β-amyloid fragment-treated control) was “no significant differences”, the locomotion activity [3] was “unaffected” and the “time spent exploring holes” value ([3]; first measurement period) was 3.3 s. For the same substance, the time spent rearing ([3]; first measurement period) was 7.0 s, the “time spent exploring holes” value ([3]; last measurement period) was 0.1 s and the time spent rearing ([3]; last measurement period) was 0.7 s. For the same substance, the “neuro-histopathology evaluation of the CA3 area of hippocampus” value ([4]; Study 1, sub-occipital) was “no significant effect”, the “density of neurons in the CA3 zone of the hippocampus” value ([4]; Study 2, sub-occipital 5 μg, β-amyloid only 15) was 22 neurons/mcm^2×10^−4 and the “Social Recognition test” value ([5]; Study 1, sub-occipital, tested at day 14) was “No effect”. The “Social Recognition test, time exploring a juvenile rat during the second trial” value ([5]; Study 2, sub-occipital 5 μg, vs β-amyloid fragment only) was “significantly reduced the increased time spent”.
